We go through 17 molecules from patent US20250295798A1, “LIGAND-DRUG CONJUGATE OF EXATECAN ANALOGUE, AND MEDICAL USE THEREOF” (BeiGene Switzerland GmbH, priority 2022, published 2025).

By EC50 is commonly meant the concentration that produces a half-maximal response. By Emax is commonly meant the greatest response seen or fitted, relative to the assay's reference.

The subject of assay [1] is Calu-6. The experiment in a line: Compounds cellular killing in Calu-6. The class given is cell-based, human. The settings on record: Homo sapiens, Calu-6, 6 days, Cell Titer-Glo. As for the experimental part:
(§1) Seeding cells A375 (1E3/well) or Calu-6 (2E3/well) into 96-well plate (Greiner: 655090), 100 ul/well. Incubation at 37° C., 5% CO2, overnight.
(§2) Adding the fresh growth-medium containing the varying concentrations of compounds, 50 ul/well.
(§3) Incubation at 37° C., 5% CO2, 6 days.
(§4) The cell viability detected by Cell Titer-Glo (Promega, G7573). Add 70 µL/well of CellTiter-Glo® Reagent in each well.
(§5) Allow the plates to incubate at room temperature for 10 minutes to stabilize luminescent signal.
(§6) Analyze with Microplate Reader.
(§7) Seeding cells A375 ([…] or Calu-6 (2E3/well) into 96-well plate (Greiner: 655090), 100 ul/well. Incubation at 37° C., […], overnight.

Assay [2] relates to A375. The experiment in a line: Compounds cellular killing in A375. The settings on record: Homo sapiens, A375, 6 days, Cell Titer-Glo. In kind it is cell-based, human. As for the experimental part: as §1, §2, §3, §4, §5, §6, §7
A general note: Cellular ATP, detected with luciferase, serves as a proxy for viable cell number.

With `CCc1c2c(nc3ccc(O)cc13)-c1cc3c(c(=O)n1C2)COC(=O)[C@]3(O)CC` [Example 1-C, reference compound], the values for the EC50 in assay [1] and in assay [2] (A-375) were 2.6 nM and 4.3 nM, respectively. Moreover, in assay [2] (A-375), the Emax came to 99.5%.

On to `CC[C@@]1(O)C(=O)OCc2c1cc1n(c2=O)Cc2c-1nc1cc(C)c(C)c3c1c2[C@@H](NC(=O)CO)CC3` [Example 2-1, N-((1S,9S)-9-ethyl-9-hydroxy-4,5-dimethyl-10,13-dioxo-2,3,9,10,13,15-hexahydro-1H,12H-benzo[de]pyrano[3′,4′:6,7]indolizino[1,2-b]quinolin-1-yl)-2-hydroxyacetamide], for which the EC50 was 10 nM in assay [1] (Calu-6, […]) and 23 nM in assay [2] (A-375, […]). In addition, the Emax in assay [1] (Calu-6, […]) came out at 98%; in assay [2] (A-375, […]), 98%.

Regarding `CC[C@@]1(O)C(=O)OCc2c1cc1n(c2=O)Cc2c-1nc1cc(F)c(C)c3c1c2[C@@H](NC(=O)C1CCC1CO)CC3` (stereo partly drawn) [Example 2-2, N-((1S,9S)-9-ethyl-5-fluoro-9-hydroxy-4-methyl-10,13-dioxo-2,3,9,10,13,15-hexahydro-1H,12H-benzo[de]pyrano[3′,4′:6,7]indolizino[1,2-b]quinolin-1-yl)-2-(hydroxymethyl)cyclobutane-1-carboxamide], the EC50 worked out at 1.3 nM in assay [1] (Calu-6, […]) and 5.2 nM in assay [2] (A-375, […]). Moreover, the Emax in assay [1] (Calu-6, […]) was 98.7%; in assay [2] (A-375, […]), 99.9%.

In assay [1] (Calu-6, […]), `CC[C@@]1(O)C(=O)OCc2c1cc1n(c2=O)Cc2c-1nc1cc(F)c(C)c3c1c2[C@@H](NC(=O)C(F)(F)CO)CC3` [Example 2-3, N-((1S,9S)-9-ethyl-5-fluoro-9-hydroxy-4-methyl-10,13-dioxo-2,3,9,10,13,15-hexahydro-1H,12H-benzo[de]pyrano[3′,4′:6,7]indolizino[1,2-b]quinolin-1-yl)-2,2-difluoro-3-hydroxypropanamide] came in with an EC50 of 0.8 nM and an Emax of 98.5%. In assay [2] (A-375, […]), it took 2.1 nM to reach a half-maximal effect (EC50) and the Emax is 100%.

In assay [1] (Calu-6, […]), `CC[C@@]1(O)C(=O)OCc2c1cc1n(c2=O)Cc2c-1nc1cc(F)c(OC)c3c1c2[C@@H](NC(=O)CO)CC3` [Example 2-4, N-((1S,9S)-9-ethyl-5-fluoro-9-hydroxy-4-methoxy-10,13-dioxo-2,3,9,10,13,15-hexahydro-1H,12H-benzo[de]pyrano[3′,4′:6,7]indolizino[1,2-b]quinolin-1-yl)-2-hydroxyacetamide] had an EC50 of 4.9 nM and an Emax of 99.7%. In addition, in assay [2] (A-375, […]), a half-maximal response (EC50) required 18 nM and the Emax worked out at 99.3%.

Turning to `CC[C@@]1(O)C(=O)OCc2c1cc1n(c2=O)Cc2c-1nc1cc(F)c(C)c3c1c2[C@@H](N(C)CCO)CC3` [Example 2-5, (1S,9S)-9-ethyl-5-fluoro-9-hydroxy-1-((2-hydroxyethyl)(methyl)amino)-4-methyl-1,2,3,9,12,15-hexahydro-10H,13H-benzo[de]pyrano[3′,4′:6,7]indolizino[1,2-b]quinoline-10,13-dione], the Emax in assay [1] (Calu-6, […]) stood at 98.9%; in assay [2] (A-375), 98.8%. Moreover, the EC50 in assay [1] is 0.3 nM; in assay [2] (A-375), 0.9 nM.

Take `CC[C@@]1(O)C(=O)OCc2c1cc1n(c2=O)Cc2c-1nc1cc(F)c(C)c3c1c2[C@@H](NC(=O)OCCO)CC3` [Example 2-6, 2-hydroxyethyl ((1S,9S)-9-ethyl-5-fluoro-9-hydroxy-4-methyl-10,13-dioxo-2,3,9,10,13,15-hexahydro-1H,12H-benzo[de]pyrano[3′,4′:6,7]indolizino[1,2-b]quinolin-1-yl)carbamate]: the Emax in assay [1] (Calu-6, […]) came to 96.9%; in assay [2] (A-375) it was 99.9%. Further, the EC50 in assay [1] was found to be 0.3 nM; in assay [2] (A-375), 1.4 nM.

In the case of `CC[C@@]1(O)C(=O)OCc2c1cc1n(c2=O)Cc2c-1nc1cc(Cl)c(C)c3c1c2[C@@H](NC(=O)CO)CC3` [Example 2-7, N-((1S,9S)-5-chloro-9-ethyl-9-hydroxy-4-methyl-10,13-dioxo-2,3,9,10,13,15-hexahydro-1H,12H-benzo[de]pyrano[3′,4′:6,7]indolizino[1,2-b]quinolin-1-yl)-2-hydroxyacetamide], in assay [1] (Calu-6, […]), the EC50 was 0.7 nM and the maximal effect (Emax) stood at 99.1%. Also, in assay [2] (A-375, […]), the EC50 came out at 2 nM and the Emax worked out at 99.1%.

In assay [1] (Calu-6, […]), `CC[C@@]1(O)C(=O)OCc2c1cc1n(c2=O)Cc2c-1nc1cc(Cl)c(C)c3c1c2[C@@H](NC(=O)C(C)(C)CO)CC3` [Example 2-8, N-((1S,9S)-5-chloro-9-ethyl-9-hydroxy-4-methyl-10,13-dioxo-2,3,9,10,13,15-hexahydro-1H,12H-benzo[de]pyrano[3′,4′:6,7]indolizino[1,2-b]quinolin-1-yl)-3-hydroxy-2,2-dimethylpropanamide] registered an EC50 of 0.4 nM and an Emax of 99.3%. In assay [2] (A-375, […]), this molecule showed an EC50 of 1.2 nM and an Emax of 98.6%.

With `CC[C@@]1(O)C(=O)OCc2c1cc1n(c2=O)Cc2c-1nc1cc3c(c4c1c2[C@@H](NC(=O)CO)CC4)OCO3` [Example 2-11, N-((1S,10S)-10-ethyl-10-hydroxy-11,14-dioxo-2,3,10,11,14,16-hexahydro-1H,13H-benzo[de][1,3]dioxolo[4,5-g]pyrano[3′,4′:6,7]indolizino[1,2-b]quinolin-1-yl)-2-hydroxyacetamide], the Emax in assay [1] (Calu-6, […]) turned out to be 99.6%; in assay [2] (A-375) it was 99.7%. Also, the results for the EC50 in assay [1] and in assay [2] (A-375) were 3.2 nM and 10.2 nM, respectively.

Turning to `CC[C@@]1(O)C(=O)OCc2c1cc1n(c2=O)Cc2c-1nc1cc(Cl)cc3c1c2[C@@H](NC(=O)CO)CC3` [Example 2-12, N-((1S,9S)-5-chloro-9-ethyl-9-hydroxy-10,13-dioxo-2,3,9,10,13,15-hexahydro-1H,12H-benzo[de]pyrano[3′,4′:6,7]indolizino[1,2-b]quinolin-1-yl)-2-hydroxyacetamide], in assay [1] (Calu-6, […]), a half-maximal effect (EC50) was put at 4.4 nM and the Emax came to 98.9%. Also, in assay [2] (A-375, […]), a half-maximal effect (EC50) was put at 6.8 nM and the Emax was 99.9%.

In assay [1] (Calu-6, […]), `CC[C@@]1(O)C(=O)OCc2c1cc1n(c2=O)Cc2c-1nc1cc(Cl)cc3c1c2[C@H](NC(=O)CO)CC3` [Example 2-13, N-((1R,9S)-5-chloro-9-ethyl-9-hydroxy-10,13-dioxo-2,3,9,10,13,15-hexahydro-1H,12H-benzo[de]pyrano[3′,4′:6,7]indolizino[1,2-b]quinolin-1-yl)-2-hydroxyacetamide] gave an EC50 of 5.8 nM and an Emax of 98.4%. In assay [2] (A-375, […]), this molecule returned an EC50 of 7.9 nM and a maximal response (Emax) of 99.6%.

Take `CC[C@@]1(O)C(=O)OCc2c1cc1n(c2=O)Cc2c-1nc1cc(F)c(C)c3c1c2C(CCCO)CC3` (stereo partly drawn) [Example 2-14, (9S)-9-ethyl-5-fluoro-9-hydroxy-1-(3-hydroxypropyl)-4-methyl-1,2,3,9,12,15-hexahydro-10H,13H-benzo[de]pyrano[3′,4′:6,7]indolizino[1,2-b]quinoline-10,13-dione]: the Emax in assay [1] (Calu-6, […]) was 99%; in assay [2] (A-375), 100%. In addition, the results for the EC50 in assay [1] and in assay [2] (A-375) were 0.1 nM and 0.3 nM, respectively.

`CC[C@@]1(O)C(=O)OCc2c1cc1n(c2=O)Cc2c-1nc1cc(F)c(C)c3c1c2[C@@H](NC(=O)C[C@@H](O)C[N+](C)(C)C)CC3` [Example 2-15, (R)-4-(((1S,9S)-9-ethyl-5-fluoro-9-hydroxy-4-methyl-10,13-dioxo-2,3,9,10,13,15-hexahydro-1H,12H-benzo[de]pyrano[3′,4′:6,7]indolizino[1,2-b]quinolin-1-yl)amino)-2-hydroxy-N,N,N-trimethyl-4-oxobutan-1-aminium]: in assay [1] (Calu-6, […]), a half-maximal response (EC50) required 179 nM and the Emax stood at 90.1%. Moreover, in assay [2] (A-375, […]), the EC50 stood at 442 nM and the Emax was 73.5%.

Take `CC[C@@]1(O)C(=O)OCc2c1cc1n(c2=O)Cc2c-1nc1cc(F)c(C)c3c1c2[C@@H](NC(=O)CC(O)C[N+](C)(C)C)CC3` (stereo partly drawn) [Example 2-16, 4-(((1S,9S)-9-ethyl-5-fluoro-9-hydroxy-4-methyl-10,13-dioxo-2,3,9,10,13,15-hexahydro-1H,12H-benzo[de]pyrano[3′,4′:6,7]indolizino[1,2-b]quinolin-1-yl)amino)-2-hydroxy-N,N,N-trimethyl-4-oxobutan-1-aminium]: the EC50 in assay [1] (Calu-6, […]) is 247 nM; in assay [2] (A-375, […]), 487 nM. For the same molecule, the Emax in assay [1] (Calu-6, […]) was determined as 87.9%; in assay [2] (A-375, […]) it was 77.1%.

In assay [1] (Calu-6, […]), `CC[C@@]1(O)C(=O)OCc2c1cc1n(c2=O)Cc2c-1nc1cc(F)c(C)c3c1c2[C@@H](NC(=O)[C@@H]1C[C@@H](O)CN1C(C)=O)CC3` [Example 2-17, (2S,4R)-1-acetyl-N-((1S,9S)-9-ethyl-5-fluoro-9-hydroxy-4-methyl-10,13-dioxo-2,3,9,10,13,15-hexahydro-1H,12H-benzo[de]pyrano[3′,4′:6,7]indolizino[1,2-b]quinolin-1-yl)-4-hydroxypyrrolidine-2-carboxamide] returned an EC50 of 44.9 nM and an Emax of 94.6%. In assay [2] (A-375, […]), this molecule returned an EC50 of 123 nM and an Emax of 94.9%.

In the case of `CC[C@@]1(O)C(=O)OCc2c1cc1n(c2=O)Cc2c-1nc1cc(F)c(C)c3c1c2[C@@H](NC(=O)c1ccc(CO)o1)CC3` [Example 2-19, N-((1S,9S)-9-ethyl-5-fluoro-9-hydroxy-4-methyl-10,13-dioxo-2,3,9,10,13,15-hexahydro-1H,12H-benzo[de]pyrano[3′,4′:6,7]indolizino[1,2-b]quinolin-1-yl)-5-(hydroxymethyl)furan-2-carboxamide], the Emax in assay [1] (Calu-6, […]) came to 99.3%; in assay [2] (A-375), 99.7%. Further, the EC50 in assay [1] amounted to 1 nM; in assay [2] (A-375) it was 4.6 nM.
